Reference: US7026281B1, “Antagonistic analogs of GH-RH inhibiting IGF-I and -II” (The Administrators of the Tulane Educational Fund, priority 1998, dated 2006)
Blank lines part the entries; values can stand above or below the compound they belong to. Square brackets hold non-standard residues; d marks the D form. Peptide text beside a SMILES is read from it. * marks the point of attachment. Acetyl(1-naphthyl) = O=C(Cc1cccc2ccccc12)*; Phe(4-Cl) = N[C@@H](Cc1ccc(Cl)cc1)C(=O)O; hArg = N=C(N)NCCCC[C@H](N)C(=O)O; Nle = CCCC[C@H](N)C(=O)O; Abu = CC[C@H](N)C(=O)O; PhAc = O=C(Cc1ccccc1)*

How the values were obtained:
[1] = test system: hGH-RH(1–29)NH2 induced GH release; assay: Inhibition of GH release in superfused rat pituitary system; format: cell-based; conditions: antagonist 30 nM; for Inhibition of GH release (%) 30 min: 1 nM hGH-RH(1–29)NH2 30 min later; for Inhibition of GH release (%) 60 min: 1 nM hGH-RH(1–29)NH2 60 min later; for Inhibition of GH release (%) 90 min: 1 nM hGH-RH(1–29)NH2 90 min later; for Inhibition of GH release (%) 120 min: 1 nM hGH-RH(1–29)NH2 120 min later; for Inhibition of GH release (%) 0 min: 1 nM hGH-RH(1–29)NH2 at 0 min
Experimental: Superfused Rat Pituitary System.
The analogs were tested in vitro in a test described earlier (S. Vigh and A. V. Schally, Peptides 5:241–347, 1984) with modification (Z. Rekasi and A. V. Schally, P.N.A.S. 90:2146–2149, 1993).
Briefly, the cells are preincubated with peptides for 9 minutes (3 mL) at various concentrations. Immediately after the incubation, 1 nM hGH-RH(1–29)NH2 is administered for 3 minutes (1 mL) [0 minute response]. To check the duration of the antagonistic effect of the analogue, 1 nM hGH-RH(1–29)NH2 is applied 30, 60, 90, and 120 minutes later for 3 minutes [30, 60, 90, 120 min responses]. Net integral values of the GH responses are evaluated. GH responses are compared to and expressed as percent of the original GH response induced by 1 nM GH-RH(1–29)NH2. The effect of the new antagonists are compared to that of [Ac-Tyr^1,D-Arg^2]hGH-RH(1–29)NH2, the “Standard antagonist”.
Growth Hormone Radio-immunoassay.
Rat GH levels in aliquots of undiluted and diluted superfusion samples were measured by double-antibody radioimmunoassay using materials supplied by the National Hormone and Pituitary Program, Baltimore, Md. The results of RIA were analyzed with a computer program developed in our institute (V. Csernus and A. V. Schally, in Neuroendocrine Research Methods, Harwood Academic (Greenstein, B. D. ed., London, pp. 71–109, 1991), hereby incorporated by reference. Inter-assay variation was less than 15% and intra-assay variation was less than 10%.

[2] = molecular target: T1, rat pituitary GH-RH receptors (Rattus norvegicus, UniProt Q02644); assay: GH-RH radioreceptor binding assay, rat anterior pituitary membrane homogenates; conditions: for Ki: competition with [His1,125I-Tyr10,Nle27]hGH-RH(1–32)NH2; for R.A. (relative affinity compared to Standard antagonist): ratio of Ki values
T1 construct: from tissue; host or cells: anterior pituitary of male Sprague-Dawley rats, crude membrane homogenates
T1 sequence (Q02644 23-464): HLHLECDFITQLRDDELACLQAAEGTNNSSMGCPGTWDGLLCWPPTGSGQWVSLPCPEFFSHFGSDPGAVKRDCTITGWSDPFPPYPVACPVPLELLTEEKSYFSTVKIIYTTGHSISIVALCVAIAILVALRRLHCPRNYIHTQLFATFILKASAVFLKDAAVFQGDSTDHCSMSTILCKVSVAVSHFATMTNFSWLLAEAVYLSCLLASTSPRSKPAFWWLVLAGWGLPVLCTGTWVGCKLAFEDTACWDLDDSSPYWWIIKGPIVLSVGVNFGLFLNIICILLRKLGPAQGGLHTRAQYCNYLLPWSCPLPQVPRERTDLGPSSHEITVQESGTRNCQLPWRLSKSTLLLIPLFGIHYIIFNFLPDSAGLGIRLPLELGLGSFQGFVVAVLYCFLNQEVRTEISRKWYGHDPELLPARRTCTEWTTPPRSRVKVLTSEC
Experimental: GH-RH Binding Assay. A sensitive radioreceptor binding assay was developed to determine the binding characteristics of the antagonists of GH-RH (G. Halmos, A. V. Schally et al., Receptor 3, 87–97, 1993), hereby incorporated by reference. The assay is based on binding of labelled [His^1,Nle^27]hGH-RH(1–32)NH2 to rat anterior pituitary membrane homogenates. Iodinated derivatives of [His^1,Nle^27]hGH-RH(1–32)NH2 are prepared by the chloramine-T method (F. C. Greenwood et al., Biochemistry 89:114–123, 1963), hereby incorporated by reference. Pituitaries from male Sprague-Dawley rats (250–300 g) are used to prepare crude membranes. For saturation binding analyses, membrane homogenates are incubated with at least 6 concentrations of [His^1,^125I-Tyr^10,Nle^27]hGH-RH(1–32) NH2, ranging from 0.005 to 0.35 nM in the presence or absence of excess unlabelled peptide (1 μM).
The pellet is counted for radioactivity in a γ-counter. The affinities of the antagonist peptides tested to rat pituitary GH-RH receptors are determined in competitive binding experiments. The final binding affinities are estimated by Ki (dissociation constant of the inhibitor-receptor complex) and are determined by the Ligand PC and McPherson computer programs of Munson and Rodbard (P. J. Munson and D. Rodbard, Anal. Biochem. 107. 220–239, 1980). Relative affinities compared to [Ac-Tyr^1,D-Arg^2]hGH-RH(1–29)NH2, the Standard antagonist, are calculated as the […].

[3] = test system: GH release stimulated by hGH-RH(1–29)NH2; assay: In vivo inhibition of serum GH response in rats; set-up: species or system rat
Experimental: GH-RH antagonistic effect of the analogs was tested on young male Sprague-Dawley rats (200–250 g). In each experiment, 5 groups of 7 animals each were used. The compounds (80 μg/kg) and GH-RH(1–29)NH2 (3 μg/kg) were dissolved in 5.5% mannitol and given intravenously to the jugular vein of the rats under Nembutal anesthesia. The time elapsed between the administrations of the antagonist and GH-RH varied between groups, according to the following schedule. The first group of animals received GH-RH injection 5 min after the administration of the antagonist; for the second, third and fourth group of animals, the time interval elapsed between the injection of the antagonist and that of GH-RH was 15, 30, and 60 min, respectively. The control group was first injected with the solvent alone instead of the antagonist, followed by a GH-RH injection 5 min later.
0.4 mL blood samples were taken for GH RIA before the administration of the antagonist (“blood0”), and 5 min after the injection of GH-RH (“blood1”). The GH response in each group was calculated as rGH=(GHblood1/GHblood0), mean±S.E.M. of the individual differences. Relative inhibition of GH response (%) in each group treated was calculated as […].

Ki [2]: 0.036 nM
R.A. (relative affinity compared to Standard antagonist) [2]: 82
Compound: CCCC[C@H](NC(=O)[C@@H](NC(=O)[C@H](CC(=O)O)NC(=O)[C@H](CCC(N)=O)NC(=O)[C@H](CC(C)C)NC(=O)[C@H](CC(C)C)NC(=O)[C@H](CCCCN)NC(=O)[C@H](CCCNC(=N)N)NC(=O)[C@H](C)NC(=O)[C@H](CO)NC(=O)[C@H](CC(C)C)NC(=O)[C@H](CCC(N)=O)NC(=O)[C@H](CC)NC(=O)[C@H](CC(C)C)NC(=O)[C@@H](NC(=O)[C@H](CCCCN)NC(=O)[C@H](CCCNC(=N)N)NC(=O)[C@H](Cc1ccc(O)cc1)NC(=O)[C@H](CCCNC(=N)N)NC(=O)[C@H](CC(N)=O)NC(=O)[C@@H](NC(=O)[C@H](Cc1ccc(Cl)cc1)NC(=O)[C@@H](NC(=O)[C@H](C)NC(=O)[C@H](CC(=O)O)NC(=O)[C@@H](CCCNC(=N)N)NC(=O)[C@H](Cc1ccc(O)cc1)NC(=O)Cc1cccc2ccccc12)[C@@H](C)CC)[C@@H](C)O)C(C)C)[C@@H](C)CC)C(=O)N[C@H](CCCNC(=N)N)C(=O)N[C@@H](CCCCNC(=N)N)C(N)=O [Peptide 5, [Nac^0, D-Arg^2, Phe(pCl)^6, Arg^9, Abu^15, Nle^27, D-Arg^28, Har^29]hGH-RH(1–29)NH2] ({Acetyl(1-naphthyl)}-Y[dR]DAI[Phe(4-Cl)]TNRYRKVL[Abu]QLSARKLLQDI[Nle][dR][hArg]-NH2)
Inhibition of GH release (%) 30 min [1]: 77%
Inhibition of GH release (%) 60 min [1]: 59%
Inhibition of GH release (%) 90 min [1]: 58%
Inhibition of GH release (%) 120 min [1]: 50%
Inhibition of GH release (%) 0 min [1]: 79%

Ki [2]: 0.107 nM
R.A. (relative affinity compared to Standard antagonist) [2]: 27
Compound: CCCC[C@H](NC(=O)[C@@H](NC(=O)[C@H](CC(=O)O)NC(=O)[C@H](CCC(N)=O)NC(=O)[C@H](CC(C)C)NC(=O)[C@H](CC(C)C)NC(=O)[C@H](CCCCN)NC(=O)[C@H](CCCNC(=N)N)NC(=O)[C@H](C)NC(=O)[C@H](CO)NC(=O)[C@H](CC(C)C)NC(=O)[C@H](CCCNC(=N)N)NC(=O)[C@H](CC)NC(=O)[C@H](CC(C)C)NC(=O)[C@@H](NC(=O)[C@H](CCCCN)NC(=O)[C@H](CCCNC(=N)N)NC(=O)[C@H](Cc1ccc(O)cc1)NC(=O)[C@H](CO)NC(=O)[C@H](CC(N)=O)NC(=O)[C@@H](NC(=O)[C@H](Cc1ccc(Cl)cc1)NC(=O)[C@@H](NC(=O)[C@H](C)NC(=O)[C@H](CC(=O)O)NC(=O)[C@@H](CCCNC(=N)N)NC(=O)[C@H](Cc1ccc(O)cc1)NC(=O)Cc1ccccc1)[C@@H](C)CC)[C@@H](C)O)C(C)C)[C@@H](C)CC)C(=O)N[C@@H](CO)C(=O)N[C@H](CCCNC(=N)N)C(N)=O [Peptide 10, [PhAc^0, D-Arg^2, Phe(pCl)^6, Abu^15, Arg^16, Nle^27, D-Arg^29]hGH-RH(1–29)NH2] (PhAc-Y[dR]DAI[Phe(4-Cl)]TNSYRKVL[Abu]RLSARKLLQDI[Nle]S[dR]-NH2)
Inhibition of GH release (%) 30 min [1]: 69%
Inhibition of GH release (%) 60 min [1]: 46%
Inhibition of GH release (%) 90 min [1]: 24%
Inhibition of GH release (%) 120 min [1]: 22%
Inhibition of GH release (%) 0 min [1]: 75%

Compound: [Nac^0, His^1, D-Arg^2, Phe(pCl)^6, Arg^9, Abu^15, Nle^27, D-Arg^28, Har^29]hGH-RH(1–29)NH2 [Peptide 8]
Inhibition of GH release (%) 30 min [1]: 100%
Inhibition of GH release (%) 60 min [1]: 98%
Inhibition of GH release (%) 90 min [1]: 97%
Inhibition of GH release (%) 120 min [1]: 90%
Inhibition of GH release (%) 0 min [1]: 100%
Inhibition of the GH release stimulated by hGH-RH(1–29)NH2 (in words) ([3]; 80 μg/kg i.v., rats): strong and long-lasting inhibition
Relative inhibition % of GH response ([3]; antagonist 80 μg/kg i.v. 5 min before GH-RH): 74%
Relative inhibition % of GH response ([3]; antagonist 80 μg/kg i.v. 15 min before GH-RH): 46%
GH response mean ± S.E.M. ([3]; antagonist 80 μg/kg i.v. 15 min before GH-RH 3 μg/kg): 3.6 ± 0.4
Relative inhibition % of GH response ([3]; antagonist 80 μg/kg i.v. 30 min before GH-RH): 8%
GH response mean ± S.E.M. ([3]; antagonist 80 μg/kg i.v. 30 min before GH-RH 3 μg/kg): 5.5 ± 0.6
Relative inhibition % of GH response ([3]; antagonist 80 μg/kg i.v. 60 min before GH-RH): 1%
GH response mean ± S.E.M. ([3]; antagonist 80 μg/kg i.v. 60 min before GH-RH 3 μg/kg): 5.8 ± 0.7
GH response mean ± S.E.M. ([3]; rGH=GHblood1/GHblood0, antagonist 80 μg/kg i.v. 5 min before GH-RH 3 μg/kg): 2.3 ± 0.3

Compound: [PhAc^0, D-Arg^2, Phe(pCl)^6, Arg^9, Tyr(Me)^10, Abu^15, Nle^27, D-Arg^28, Har^29]hGH-RH(1–29)NH2 [Peptide 6]
Inhibition of GH release (%) 30 min [1]: 93%
Inhibition of GH release (%) 60 min [1]: 97%
Inhibition of GH release (%) 90 min [1]: 95%
Inhibition of GH release (%) 120 min [1]: 90%
Inhibition of GH release (%) 0 min [1]: 93%

Compound: [PhAc^0, D-Arg^2, Phe(pCl)^6, Tyr(Me)^10, Abu^15, D-Arg^27, Arg^28, D-Arg^29]hGH-RH(1–29)NH2 [Peptide 19]
Inhibition of GH release (%) 30 min [1]: 47%
Inhibition of GH release (%) 60 min [1]: 59%
Inhibition of GH release (%) 90 min [1]: 23%
Inhibition of GH release (%) 120 min [1]: 39%
Inhibition of GH release (%) 0 min [1]: 58%

Compound: [PhAc^0, His^1, D-Arg^2, Phe(pCl)^6, Arg^9, Abu^15, Nle^27, D-Arg^28, Har^29]hGH-RH(1–29)NH2 [Peptide 7]
Inhibition of GH release (%) 30 min [1]: 92%
Inhibition of GH release (%) 60 min [1]: 82%
Inhibition of GH release (%) 90 min [1]: 77%
Inhibition of GH release (%) 120 min [1]: 65%
Inhibition of GH release (%) 0 min [1]: 97%
